Results as given in patent publication US12202805B2, “Process for preparing (5S)-{[2-(4-carboxyphenyl)ethyl] |2-(2-{|3-chloro-4'-(trifluoromethyl)biphenyl-4-yl]methoxy}phenyl)ethyl]aminol-5,6,7,8-tetrahydroquinoline-2-carboxylic acid and its crystalline forms for use as pharmaceutically active compound” (Bayer Aktiengesellschaft, priority 2021, dated 2025).

Columns and labels:
[1] = system: thromboxane A2 challenged PAH-minipig; test: Haemodynamics in the anesthetized thromboxane challenged minipig, inhaled nebulized solution (PAP, BP); assay type: in vivo, Göttingen Minipigs
Procedure: E-1 Haemodynamics in the Anesthetized Thromboxane Challenged Minipig
Lung Selectivity and Duration of Action
Healthy Göttingen Minipigs® Ellegaard (Ellegaard, Denmark) of both sexes and having a weight of 2-6 kg were used. The animals were sedated by i.m. administration of about 25 mg/kg ketamine and about 10 mg/kg azaperone. Anaesthesia was initiated by i.v. administration of about 2 mg/kg ketamine and about 0.3 mg/kg midazolam. Maintenance of anaesthesia was by i.v. administration of about 7.5-30 mg/kg/h ketamine and about 1-4 mg/kg/h midazolam (rate of infusion 1-4 ml/kg/h) and about 150 μg/kg/h pancuronium bromide (for example Pancuronium-Actavis). After intubation, the animals were ventilated by the ventilator at a constant respiratory volume (10-12 ml/kg, 35 breaths/min; Avea®, Viasys Healthcare, USA, or Engström Carestation, GE Healthcare, Freiburg, Germany) such that an end-tidal CO2 concentration of about 5% was achieved. Ventilation was performed with room air, enriched with about 40% oxygen (normoxia). For the measurement of the haemodynamic parameters such as pulmonary arterial pressure (PAP), blood pressure (BP) and heart rate (HR), catheters were inserted into the carotid artery to measure the blood pressure, and a Swan-Ganz® catheter was introduced in a flow-directed manner via the jugular vein into the pulmonary artery. The haemodynamic signals were recorded and evaluated by means of pressure transducers (Combitransducer, B. Braun, Melsungen, Germany)/amplifiers and Ponemah® as data acquisition software.
After the instruments have been placed into the animals, continuous infusion of a thromboxane A2 analog was initiated to increase the pulmonary arterial pressure. About 0.3-0.75 μg/kg/min of 9,11-didesoxy-9α,11α-epoxymethanoprostaglandine F2α (U-44069; Sigma, cat. no. D0400, or Cayman Chemical Company, cat. no. 16440), dissolved in physiological saline, were infused to achieve an increase of the mean pulmonary arterial pressure to values of over 25 mmHg. 30 minutes after the start of the infusion, a plateau was reached, and the experiment was started.
The test substances were administered as i.v. infusion or by inhalation. For the preparation of the solution for inhalation, the following procedure was adopted: For an animal having a weight of 4 kg, to prepare the stock solution (300 μg/kg), 1.2 mg of the test compound were weighed out and dissolved in a total volume of 3 ml (1% DMSO, 99% 0.2% strength citric acid solution, 1 n aqueous sodium hydroxide solution to adjust the pH to 8). The solution was then diluted to the concentration employed using 0.2% strength citric acid which had been adjusted to pH 8 beforehand with aqueous sodium hydroxide solution. In each test, 3 ml of the solution of test compound per 4 kg animal were nebulized in the inhalation arm of the respiratory circuit using the Aeroneb® Pro nebulizer system. The mean nebulization time was about 7 min from the start of the nebulization.
With respect to a prediction of the duration of action for human studies comparative example 11 was compared in the PAH minipig model after inhaled application to Ventavis® (=Iloprost, 10 μg/kg nominal dose), which we used as a clinical reference. […] Therefore, the duration of action is more than 6 times longer compared to Ventavis in this preclinical animal model.

[2] = Protein binding via Transil assay, human plasma; assay type: in vitro ADME
Procedure: (§1) Protein Binding of Comparative Example 11 and Comparative Example 1 was Analyzed Via Transil Assay, Described Below.
(§2) The distribution of a test substance between Transil® (phosphatidylcholine lipid bilayers immobilized on silica beads) and plasma is a characteristic feature of any pharmaceutical compound and is dependent on its extent of binding to plasma proteins. By comparing the distribution between Transil® and buffer with the distribution between Transil® and plasma of any species of interest, the unbound fraction in the plasma of the respective animal species can be calculated in vitro. The respective plasma and buffer concentrations were determined via a radioactivity analysis. A detailed description of the method and its validation was published by Schuhmacher et al. (2).

[3] = Protein binding via Transil assay, rat plasma; assay type: in vitro ADME
Procedure: as §1, §2

[4] = system: unilateral ventilated minipig model; test: Unilateral ventilated minipig model as a proxy of VQ-mismatch; assay type: in vivo; conditions: inhaled application
[5] = system: PAH-minipig model; test: PAH-minipig model on top of PAH standard-of-care; assay type: in vivo; conditions: inhaled; SoC e.g. bosentan, sildenafil, Ilomedin, riociguat
[6] = Micronization in spiral jet mill: solid form (XRPD) and particle size distribution; assay type: physicochemical; conditions: for PSD X10 / PSD X50 / PSD X90: dry measurement 4 bar
Description: For inhalative drug products it is important to guarantee a homogeneous drug substance with defined particle size <5 μm to secure delivery to the deep lung compartments. This technical requirement can be afforded by micronization of the drug substance particles.
Generally no amorphization even partial nor form conversion should happen during the necessary micronization step.
The corresponding batches (examples 8a-8 d) were micronized using a 50 mm spiral jet mill and pressurized nitrogen with the following parameters (see table 16b).
The corresponding batches were micronized using a 100 mm spiral jet mill and pressurized nitrogen with the following parameters (see table 16c).
All measurements cited in the above tables were obtained by laser diffraction with dry dispersion using compressed air. Measuring in aqueous suspension with surfactants may lead to smaller particle sizes (×90 up to 1 μm smaller).

[7] = system: healthy male subjects; test: E-2.1 bodyplethysmography: total specific airway resistance (sRaw) in healthy male subjects; assay type: in vivo, human
Procedure: (§3) Healthy White male subjects, aged 18 to 45 years and with a body mass index (BMI) above/equal 18.5 and below/equal 29.9 kg/m2 were treated in a clinical pharmacological phase I study on seven days with inhaled once daily doses of 480 μg or 1000 μg or 2000 μg (2 capsules of 1000 μg) (nominal dose) of dry powder formulations comprising example 2 or Placebo. The subjects inhaled the drug powder from capsules (see under C-1, e.g. tables 22 and 23) inserted into a handheld inhalation device by one deep inhalative breath. The dry powder formulation of the drug is dispersed into the airstream and fine particles are transported into the deep parts of the lung where it is intended to cause a vasodilation of the blood vessels in PH patients for a substantial reduction of increased blood pressure in the central pulmonary blood vessels in PAH patients or other subtypes of PH. This effect cannot be shown in subjects with healthy lungs. In addition inhaled drug causes a dilation of the bronchial airways and thus also improves disease states of lung diseases in PH patients with pathological bronchoconstriction. This effect was measured via bodyplethysmography as reduction of Specific Airway Resistance in healthy subjects. […]

[8] = E-2.1 plasma concentrations over time after inhalation in healthy male subjects; assay type: in vivo, human; conditions: all doses administered
Procedure: as §3

[9] = PTFE coated jet mill, 25° C., 4.5/4.0 bar, 4.5 g/min
[10] = VA jet mill 50 mm, 25° C., 4.5/4.0 bar, 4.5 g/min
[11] = VA jet mill (low stress conditions), −65° C., 4.5/3.0 bar, 10.6 g/min
[12] = VA jet mill, −65° C., 4.5/4.0 bar, 5.5 g/min
[13] = after micronization, 100 mm spiral jet mill, monohydrate I as starting material

SMILES: O=C(O)c1ccc(CCN(CCc2ccccc2OCc2ccc(-c3ccc(C(F)(F)F)cc3)cc2Cl)[C@H]2CCCc3nc(C(=O)O)ccc32)cc1 [comparative example 11, (5S)-5-{[2-(4-carboxyphenyl)ethyl][2-(2-{[3-chloro-4′-(trifluoromethyl)[biphenyl]-4-yl]methoxy}phenyl)ethyl]amino}-5,6,7,8-tetrahydroquinoline-2-carboxylic acid]
- duration of dose dependent efficacy (PAP) ([1]; inhaled, all doses (10, 30, 100 μg/kg nominal dose), 240 min observation interval): ≥ 240 min
- time of maximum effect after start inhalation ([1]; nebulized liquid formulations): about 90 min
- duration of action, times longer compared to Ventavis ([1]; preclinical animal model): more than 6 times
- free fraction, times lower than comparative example 1 [2]: 2 times
- fraction unbound, times lower than comparative example 1 [3]: 1.6 times
- effect on PAP and oxygenation [4]: lowered PAP without negative effects on oxygenation
- effect on elevated PAP on top of PAH standard-of-care [5]: selectively decreased elevated PAP

SMILES: O=C(O)c1ccc(CCN(CCc2ccccc2OCc2ccc(-c3ccc(C(F)(F)F)cc3)cc2Cl)[C@H]2CCCc3nc(C(=O)O)ccc32)cc1 [example 2, (5S)—{[2-(4-Carboxyphenyl)ethyl][2-(2-{[3-chloro-4′-(trifluoromethyl)biphenyl-4-yl]methoxy}phenyl)-ethyl]amino}-5,6,7,8-tetrahydroquinoline-2-carboxylic acid as Monohydrate II]
- PSD X10 [6, 9]: X10: 0.7 μm,
- PSD X50 [6, 9]: X50: 1.9 μm,
- PSD X90 [6, 9]: X90: 5.0 μm
- PSD X10 [6, 10]: X10: 0.4 μm,
- PSD X50 [6, 10]: X50: 1.7 μm,
- PSD X90 [6, 10]: X90: 4.2 μm
- PSD X10 [6, 11]: X10: 0.5 μm,
- PSD X50 [6, 11]: X50: 2.3 μm,
- PSD X90 [6, 11]: X90: 9.6 μm
- PSD X10 [6, 12]: X10: 0.4 μm,
- PSD X50 [6, 12]: X50: 1.8 μm,
- PSD X90 [6, 12]: X90: 4.8 μm
- XRPD form after micronization ([6]; batch of example 2): monohydrate II with partial amorphization
- minimal effective nominal dose (5% reduction in PAP) ([1]; nebulized solution, inhaled): 3 µg/kg
- total specific airway resistance ([7]; 480 μg, 0 D 06 H 00 M): 0.800 ± 0.187 kPa/sec
- total specific airway resistance ([7]; 2000 μg, 7 D 06 H 00 M): 0.730 ± 0.151 kPa/sec
- persistence of measurable plasma concentration after first inhalation [8]: 48 h
- fraction unbound ([2]; read-out: plasma fu (fraction unbound)): 0.000764

SMILES: O=C(O)c1ccc(CCN(CCc2ccccc2OCc2ccc(-c3ccc(C(F)(F)F)cc3)cc2Cl)[C@H]2CCCc3nc(C(=O)O)ccc32)cc1 [example 4, (5S)—{[2-(4-Carboxyphenyl)ethyl][2-(2-{[3-chloro-4′-(trifluoromethyl)biphenyl-4-yl]methoxy}phenyl)-ethyl]amino}-5,6,7,8-tetrahydroquinoline-2-carboxylic acid as Monohydrate I]
- stability under micronization conditions ([6]; 100 mm spiral jet mill, pressurized nitrogen): stable
- PSD X10 [6, 13]: X10: 0.7 μm,
- PSD X50 [6, 13]: X50: 2.1 μm,
- PSD X90 [6, 13]: X90: 6.1 μm
